Results as given in ChEMBL document CHEMBL4334438, “Discovery of novel glycogen synthase kinase-3α inhibitors: Structure-based virtual screening, preliminary SAR and biological evaluation for treatment of acute myeloid leukemia” (Eur J Med Chem, 2019).

Tests used:
[1] = molecular target: Dual specificity protein kinase CLK3 (Homo sapiens) (UniProt P49761); assay: Inhibition of recombinant full length human CLK3 assessed as residual activity at 1 uM using ERMRPRKRQGSVR as substrate incubated 40 mins in presence of [gamma-33ATP] by scintillation counting based radiometry assay relative to control
[2] = molecular target: Tyrosine-protein kinase Srms (Homo sapiens) (UniProt Q9H3Y6); assay: Inhibition of human SRMS assessed as residual activity at 1 uM by radiometric method relative to control
Homo sapiens = organism: Homo sapiens; assay: Inhibition of recombinant human Ros V2262A mutant (1883 to end residues) assessed as residual activity at 1 uM using KKKSPGEYVNIEFG as substrate measured after 40 mins in presence of [gamma33P]ATP by scintillation counting method relative to control
[3] = tested on: Tyrosine-protein kinase ABL1 (Homo sapiens), P00519 [H396P]; assay: Inhibition of human ABL1 H396P mutant (27 to end residues) assessed as residual activity at 1 uM using EAIYAAPFAKKK as substrate incubated for 40 mins in presence of [gamma-33ATP] by scintillation counting based radiometry assay relative to control
[4] = molecular target: Protein kinase C beta type (Homo sapiens) (UniProt P05771); assay: Inhibition of recombinant human PKCbeta1 (2 to end residues) assessed as residual activity at 1 uM using histone H1 as substrate measured after 40 mins in presence of [gamma33P]ATP by scintillation counting method relative to control
[5] = tested on: Eukaryotic elongation factor 2 kinase (Homo sapiens), O00418 [H23R]; assay: Inhibition of recombinant human eEF-2K H23R mutant (2 to end residues) assessed as residual activity at 1 uM using RKKFGESEKTKTKEFL as substrate at 40 mins in presence of [gamma-33ATP] by scintillation counting based radiometry assay relative to control
[6] = molecular target: Fibroblast growth factor receptor 1 (Homo sapiens) (UniProt P11362); assay: Inhibition of recombinant human FGFR1 (456 to 765 residues) assessed as residual activity at 1 uM using KKKSPGEYVNIEF as substrate at 40 mins in presence of [gamma-33ATP] by scintillation counting based radiometry assay relative to control
[7] = molecular target: Ephrin type-A receptor 1 (Homo sapiens) (UniProt P21709); assay: Inhibition of recombinant human EphA1 (568 to end residues) assessed as residual activity at 1 uM using KKKSPGEYVNIEFG as substrate at 40 mins in presence of [gamma-33ATP] by scintillation counting based radiometry assay relative to control
[8] = molecular target: Serine/threonine-protein kinase 24 (Homo sapiens) (UniProt Q9Y6E0); assay: Inhibition of recombinant human MST3 (1 to 304 residues) assessed as residual activity at 1 uM using ERMRPRKRQGSVRRRV as substrate measured after 40 mins in presence of [gamma33P]ATP by scintillation counting method relative to control
[9] = molecular target: Activin receptor type-2A (Homo sapiens) (UniProt P27037); assay: Inhibition of human ACTR2A (162 to end residues) assessed as residual activity at 1 uM using casein as substrate incubated for 120 mins in presence of [gamma-33ATP] by scintillation counting based radiometry assay relative to control
[10] = molecular target: Glycogen synthase kinase-3 alpha (Homo sapiens, UniProt P49840); assay: Inhibition of human GSK-3alpha S449A mutant (2 to end residues) using phospho GS2 peptide as substrate after 40 mins in presence of [gamma-33ATP] by scintillation counting method
[11] = tested on: Hepatocyte growth factor receptor (Homo sapiens), P08581 [Y1230C]; assay: Inhibition of recombinant human MET A1209G/V1290L/Y1248C mutant (974 to end residues) assessed as residual activity at 1 uM using KKKGQEEEYVFIE as substrate incubated for 40 mins in presence of [gamma-33ATP by scintillation counting based radiometry assay relative to control
[12] = molecular target: Insulin-like growth factor 1 receptor (Homo sapiens) (UniProt P08069); assay: Inhibition of human IGF1R (959 to end residues) assessed as residual activity at 1 uM using KKKSPGEYVNIEFG as substrate after 40 mins by [gamma-33ATP] radiometric assay relative to control
[13] = tested on: Mast/stem cell growth factor receptor Kit (Homo sapiens), P10721 [D816V]; assay: Inhibition of recombinant human C-Kit D816V mutant (544 to end residues) assessed as residual activity at 1 uM poly(Glu, Tyr) 4:1 as substrate incubated 40 mins in presence of [gamma-33ATP] by scintillation counting based radiometry assay relative to control
[14] = molecular target: CDC7/Cyclin B1 (Homo sapiens) (UniProt P14635+O00311); assay: Inhibition of recombinant full length human CDC7/CyclinB1 assessed as residual activity at 1 uM using Histone H1 as substrate incubated for 120 mins in presence of [gamma-33ATP] by scintillation counting based radiometry assay relative to control; assay type: protein-complex assay
[15] = molecular target: Serine/threonine-protein kinase Chk2 (Homo sapiens) (UniProt O96017); assay: Inhibition of recombinant human CHK2 (5 to end residues) assessed as residual activity at 1 uM using KKKVSRSGLYRSPSMPENLNRPR as substrate incubated for 40 mins in presence of [gamma-33ATP] by scintillation counting based radiometry assay relative to control
[16] = molecular target: Serine/threonine-protein kinase SIK3 (Homo sapiens) (UniProt Q9Y2K2); assay: Inhibition of recombinant human SIK3 (1 to 307 residues) assessed as residual activity at 1 uM using KKKVSRSGLYRSPSMPENLNRPR as substrate measured after 40 mins in presence of [gamma33P]ATP by scintillation counting method relative to control
[17] = molecular target: Ribosomal protein S6 kinase alpha-6 (Homo sapiens) (UniProt Q9UK32); assay: Inhibition of recombinant full length human Rsk4 assessed as residual activity at 1 uM using LRRASLG as substrate measured after 40 mins in presence of [gamma33P]ATP by scintillation counting method relative to control
[18] = molecular target: Wee1-like protein kinase (Homo sapiens) (UniProt P30291); assay: Inhibition of human Wee1 (214 to end residues) assessed as residual activity at 1 uM using LSNLYHQGKFLQTFCGSPLYRRR as substrate measured after 40 mins in presence of [gamma33P]ATP by scintillation counting method relative to control
[19] = molecular target: 5'-AMP-activated protein kinase catalytic subunit alpha-1 (Homo sapiens) (UniProt Q13131); assay: Inhibition of recombinant full length human AMPKalpha1 assessed as residual activity at 1 uM using AMARAASAAALAR as substrate incubated for 40 mins in presence of [gamma-33ATP] by scintillation counting based radiometry assay relative to control
[20] = molecular target: ALK tyrosine kinase receptor (Homo sapiens) (UniProt Q9UM73); assay: Inhibition of human ALK (1058 to end residues) assessed as residual activity at 1 uM using KKKSPGEYVNIEFG as substrate incubated for 40 mins in presence of [gamma-33ATP] by scintillation counting based radiometry assay relative to control

Chain of Mast/stem cell growth factor receptor Kit (Homo sapiens), P10721 [D816V] (P10721 whole entry D816V): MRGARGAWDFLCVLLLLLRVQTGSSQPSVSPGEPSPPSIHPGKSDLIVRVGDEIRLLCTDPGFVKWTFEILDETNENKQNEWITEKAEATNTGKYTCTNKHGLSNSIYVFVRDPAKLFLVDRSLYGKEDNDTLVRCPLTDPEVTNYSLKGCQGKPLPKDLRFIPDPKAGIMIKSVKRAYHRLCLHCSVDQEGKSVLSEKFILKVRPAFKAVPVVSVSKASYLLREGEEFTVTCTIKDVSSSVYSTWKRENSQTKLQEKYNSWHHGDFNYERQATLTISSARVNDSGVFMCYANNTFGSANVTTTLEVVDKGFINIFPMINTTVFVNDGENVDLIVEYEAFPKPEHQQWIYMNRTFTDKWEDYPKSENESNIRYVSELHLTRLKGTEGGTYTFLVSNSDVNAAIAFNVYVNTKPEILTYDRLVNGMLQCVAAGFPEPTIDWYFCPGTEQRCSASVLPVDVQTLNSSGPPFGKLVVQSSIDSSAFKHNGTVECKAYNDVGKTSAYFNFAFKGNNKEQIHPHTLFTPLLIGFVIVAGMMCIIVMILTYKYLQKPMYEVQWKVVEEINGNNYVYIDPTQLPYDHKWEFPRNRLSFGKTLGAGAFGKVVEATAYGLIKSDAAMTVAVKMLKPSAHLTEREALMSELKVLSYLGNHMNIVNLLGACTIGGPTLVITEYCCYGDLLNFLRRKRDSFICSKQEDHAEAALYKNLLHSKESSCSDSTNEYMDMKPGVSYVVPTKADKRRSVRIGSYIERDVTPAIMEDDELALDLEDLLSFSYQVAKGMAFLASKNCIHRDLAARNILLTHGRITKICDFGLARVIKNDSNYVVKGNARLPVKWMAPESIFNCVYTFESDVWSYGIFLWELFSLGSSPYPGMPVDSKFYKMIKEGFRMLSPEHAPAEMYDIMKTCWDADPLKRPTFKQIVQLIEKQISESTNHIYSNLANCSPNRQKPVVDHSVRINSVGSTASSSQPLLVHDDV
Chain of CDC7/Cyclin B1 (Homo sapiens) (O00311 whole entry, looked up): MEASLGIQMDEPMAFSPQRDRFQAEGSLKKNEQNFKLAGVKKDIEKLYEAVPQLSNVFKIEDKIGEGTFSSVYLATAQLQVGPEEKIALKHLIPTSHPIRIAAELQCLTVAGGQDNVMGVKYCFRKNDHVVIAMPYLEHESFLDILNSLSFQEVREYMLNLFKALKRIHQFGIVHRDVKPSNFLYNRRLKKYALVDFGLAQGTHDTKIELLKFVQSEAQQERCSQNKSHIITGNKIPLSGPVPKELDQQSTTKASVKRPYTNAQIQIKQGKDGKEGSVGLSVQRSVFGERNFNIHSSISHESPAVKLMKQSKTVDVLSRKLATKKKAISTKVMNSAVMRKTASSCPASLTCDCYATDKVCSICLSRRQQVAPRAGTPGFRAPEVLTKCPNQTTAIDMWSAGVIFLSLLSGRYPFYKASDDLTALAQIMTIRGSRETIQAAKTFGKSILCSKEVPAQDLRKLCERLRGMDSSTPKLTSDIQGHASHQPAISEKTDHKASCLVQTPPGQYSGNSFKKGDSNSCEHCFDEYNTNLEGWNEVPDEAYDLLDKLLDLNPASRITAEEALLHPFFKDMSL
Chain of CDC7/Cyclin B1 (Homo sapiens) (P14635 whole entry, looked up): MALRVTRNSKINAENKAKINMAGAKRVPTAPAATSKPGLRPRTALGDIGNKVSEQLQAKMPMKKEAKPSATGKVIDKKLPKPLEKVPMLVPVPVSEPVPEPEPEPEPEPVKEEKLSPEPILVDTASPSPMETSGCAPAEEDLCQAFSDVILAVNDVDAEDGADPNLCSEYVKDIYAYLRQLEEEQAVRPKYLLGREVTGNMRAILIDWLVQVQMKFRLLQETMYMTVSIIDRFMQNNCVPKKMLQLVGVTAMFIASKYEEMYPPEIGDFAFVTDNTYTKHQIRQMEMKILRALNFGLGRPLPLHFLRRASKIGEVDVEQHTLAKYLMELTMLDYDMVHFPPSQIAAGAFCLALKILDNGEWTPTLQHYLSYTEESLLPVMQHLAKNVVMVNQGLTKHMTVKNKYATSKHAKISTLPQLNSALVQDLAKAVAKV
Chain of Tyrosine-protein kinase Srms (Homo sapiens) (Q9H3Y6 whole entry): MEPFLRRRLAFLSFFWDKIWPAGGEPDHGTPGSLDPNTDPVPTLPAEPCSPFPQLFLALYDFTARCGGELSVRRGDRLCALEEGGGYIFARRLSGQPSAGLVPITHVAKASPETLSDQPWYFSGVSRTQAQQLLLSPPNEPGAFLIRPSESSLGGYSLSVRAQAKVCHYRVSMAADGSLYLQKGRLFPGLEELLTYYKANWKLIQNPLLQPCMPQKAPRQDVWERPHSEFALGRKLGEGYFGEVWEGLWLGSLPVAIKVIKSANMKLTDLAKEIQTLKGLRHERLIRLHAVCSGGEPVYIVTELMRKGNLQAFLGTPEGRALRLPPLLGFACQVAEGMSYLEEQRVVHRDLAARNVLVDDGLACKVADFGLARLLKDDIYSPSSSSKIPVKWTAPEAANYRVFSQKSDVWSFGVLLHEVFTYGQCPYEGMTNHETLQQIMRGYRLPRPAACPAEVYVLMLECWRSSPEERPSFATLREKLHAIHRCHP
Chain of Serine/threonine-protein kinase Chk2 (Homo sapiens) (O96017 whole entry, the tested form may be a part): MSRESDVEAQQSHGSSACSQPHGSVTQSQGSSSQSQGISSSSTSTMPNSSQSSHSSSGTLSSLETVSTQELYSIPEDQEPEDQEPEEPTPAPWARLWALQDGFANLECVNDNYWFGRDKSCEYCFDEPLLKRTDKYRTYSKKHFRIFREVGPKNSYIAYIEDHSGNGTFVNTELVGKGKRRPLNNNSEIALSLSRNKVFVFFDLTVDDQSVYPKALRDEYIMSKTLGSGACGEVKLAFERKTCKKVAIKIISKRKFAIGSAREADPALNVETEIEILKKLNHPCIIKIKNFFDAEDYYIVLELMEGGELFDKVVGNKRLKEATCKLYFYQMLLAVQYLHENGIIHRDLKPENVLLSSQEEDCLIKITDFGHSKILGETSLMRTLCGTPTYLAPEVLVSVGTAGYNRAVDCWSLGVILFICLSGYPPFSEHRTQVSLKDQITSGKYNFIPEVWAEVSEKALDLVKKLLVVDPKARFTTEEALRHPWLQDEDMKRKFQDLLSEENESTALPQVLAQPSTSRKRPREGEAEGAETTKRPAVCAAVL
Chain of Serine/threonine-protein kinase SIK3 (Homo sapiens) (Q9Y2K2 whole entry, looked up, the tested form may be a part): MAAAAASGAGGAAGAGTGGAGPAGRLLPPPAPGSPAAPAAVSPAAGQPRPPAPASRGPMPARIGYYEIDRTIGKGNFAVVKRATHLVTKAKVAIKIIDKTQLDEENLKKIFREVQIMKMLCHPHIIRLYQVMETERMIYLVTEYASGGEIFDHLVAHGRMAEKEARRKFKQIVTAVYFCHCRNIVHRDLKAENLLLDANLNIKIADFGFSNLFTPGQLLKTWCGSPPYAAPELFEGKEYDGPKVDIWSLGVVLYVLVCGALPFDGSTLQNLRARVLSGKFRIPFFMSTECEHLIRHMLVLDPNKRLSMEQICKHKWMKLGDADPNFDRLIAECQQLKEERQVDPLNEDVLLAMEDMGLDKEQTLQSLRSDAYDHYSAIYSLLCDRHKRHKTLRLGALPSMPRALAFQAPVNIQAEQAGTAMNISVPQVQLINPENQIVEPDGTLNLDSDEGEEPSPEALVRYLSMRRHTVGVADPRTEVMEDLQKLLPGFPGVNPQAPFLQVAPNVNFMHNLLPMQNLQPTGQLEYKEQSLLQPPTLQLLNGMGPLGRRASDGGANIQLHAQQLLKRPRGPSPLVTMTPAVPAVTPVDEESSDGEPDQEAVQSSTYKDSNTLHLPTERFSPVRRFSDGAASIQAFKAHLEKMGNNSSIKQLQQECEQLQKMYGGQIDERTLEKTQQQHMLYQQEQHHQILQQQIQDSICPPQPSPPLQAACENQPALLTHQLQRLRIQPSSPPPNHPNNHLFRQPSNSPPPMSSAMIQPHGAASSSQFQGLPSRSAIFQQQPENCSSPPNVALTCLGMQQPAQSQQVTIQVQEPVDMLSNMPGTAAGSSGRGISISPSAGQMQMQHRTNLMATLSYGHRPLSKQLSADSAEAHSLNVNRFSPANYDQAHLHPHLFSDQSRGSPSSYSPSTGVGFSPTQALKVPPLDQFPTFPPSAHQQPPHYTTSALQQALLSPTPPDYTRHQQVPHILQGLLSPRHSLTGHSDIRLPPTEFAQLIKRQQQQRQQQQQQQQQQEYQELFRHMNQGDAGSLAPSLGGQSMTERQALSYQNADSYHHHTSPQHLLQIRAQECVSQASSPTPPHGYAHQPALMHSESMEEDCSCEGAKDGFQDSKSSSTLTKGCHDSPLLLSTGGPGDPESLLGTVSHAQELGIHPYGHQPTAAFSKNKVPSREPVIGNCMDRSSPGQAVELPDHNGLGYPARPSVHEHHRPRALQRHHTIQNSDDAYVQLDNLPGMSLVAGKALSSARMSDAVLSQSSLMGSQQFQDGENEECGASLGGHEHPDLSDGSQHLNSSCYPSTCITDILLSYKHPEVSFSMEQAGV
Chain of Dual specificity protein kinase CLK3 (Homo sapiens) (P49761 whole entry, looked up): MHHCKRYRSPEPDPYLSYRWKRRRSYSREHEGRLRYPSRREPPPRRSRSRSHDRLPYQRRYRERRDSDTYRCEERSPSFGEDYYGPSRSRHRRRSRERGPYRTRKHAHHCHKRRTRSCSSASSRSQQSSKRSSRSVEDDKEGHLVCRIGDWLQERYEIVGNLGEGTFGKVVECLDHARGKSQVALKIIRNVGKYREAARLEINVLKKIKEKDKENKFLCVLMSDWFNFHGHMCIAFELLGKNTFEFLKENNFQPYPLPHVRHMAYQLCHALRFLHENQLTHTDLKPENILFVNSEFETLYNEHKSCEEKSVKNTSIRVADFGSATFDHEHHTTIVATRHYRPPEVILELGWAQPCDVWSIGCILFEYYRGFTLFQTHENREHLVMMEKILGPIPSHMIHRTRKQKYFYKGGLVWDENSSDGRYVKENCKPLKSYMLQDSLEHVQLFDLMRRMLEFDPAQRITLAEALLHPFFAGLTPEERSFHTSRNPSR

| Compound | Activity [1] | Activity [2] | Activity (Homo sapiens) | Activity [3] | Activity [4] | Activity [5] | Activity [6] | Activity [7] | Activity [8] | Activity [9] | IC50 [10] | Activity [11] | Activity [12] | Activity [13] | Activity [14] | Activity [15] | Activity [16] | Activity [17] | Activity [18] | Activity [19] | further results |
| --- | --- | --- | --- | --- | --- | --- | --- | --- | --- | --- | --- | --- | --- | --- | --- | --- | --- | --- | --- | --- | --- |
| N=C1NC(=O)/C(=C\c2ccc(-c3cccc([N+](=O)[O-])c3)o2)S1 | 92% | 95% | 95% | 80% | 100% | 95% | 99% | 100% | 105% | 99% | 49 nM | 98% | 108% | 94% | 82% | 94% | 101% | 99% | 103% | 44% | Activity [20]: 98% |
| C=CCOC(=O)c1cc(-c2ccc(/C=C3/NC(=S)NC3=O)o2)ccc1Cl | 85% | 114% | 118% | 110% | 113% | 98% | 113% | 104% | 106% | 100% | 33 nM | 114% | 88% | 97% | 93% | 92% | 96% | 92% | 106% | 24% | Activity [20]: 90% |
